Data on 8 compounds can be found in patent US20160298165A1 (priority 2013, published 2016).

Experiment [1] has as its system M. tuberculosis. Format: cell-based, Mycobacterium tuberculosis.
Experiment [2] relates to M. tuberculosis mc26230 (H37Rv ΔRD1 ΔpanCD). The experiment is classed as cell-based. Particulars: anaerobic chamber; 4 mM VC.
In experiment [3] the test system is M. tuberculosis. Format: cell-based, Mycobacterium tuberculosis. The source holds these as a separate data set.
For experiment [4], the system named is M. tuberculosis H37Rv ΔRD1 ΔpanCD. The experiment is classed as cell-based. Particulars: treated for 3 days.
The next experiment deals with M. tuberculosis H37Rv. Format: cell-based, Mycobacterium tuberculosis.
Experiment [5] deals with M. tuberculosis. The experiment is classed as cell-based, Mycobacterium tuberculosis. The source holds these as a separate data set.
Experiment [6] relates to M. tuberculosis H37Rv ΔRD1 ΔpanCD. Format: cell-based. Particulars: cysteine 4 mM, 24 h.
Experiment [7] shares this test system. Format: cell-based. The conditions noted are these: cysteine 4 mM, 24 h. This is another data set of the same source.

Consider `O=C1O[C@H]([C@@H](O)CO)C(O)=C1O` [VC, Vitamin C], for which, in the experiment with M. tuberculosis [1], the “increase in total ROS” value is recorded as “Up to threefold” and the “total ROS concentration relative to the untreated sample” value is listed as “did not substantially alter”. The “effect on M. tuberculosis viability” value in experiment [2] was “no effect”. In the experiment with M. tuberculosis [3], the “cells with DNA breaks relative to untreated culture or culture treated with VE” value is recorded as “tenfold higher” and the “percentage of cells with DNA breaks” value is reported as 17-25%.

On to `NNC(=O)c1ccncc1` [INH, Isoniazid], for which the “intracellular levels of ferrous ions vs untreated sample” value in experiment [4] is given as “very high”. Also, the “decrease in CFUs” value with M. tuberculosis H37Rv is reported as 3-4 log.

Consider `Cc1c(C)c2c(c(C)c1O)CC[C@@](C)(CCC[C@H](C)CCC[C@H](C)CCCC(C)C)O2` [VE, vitamin E, reference compound], for which the “ROS level vs untreated samples” value with M. tuberculosis [1] is reported as “lowered ROS level”.

Consider `OC(CS)C(O)CS` (stereo not drawn) [Dithio- threitol], for which, in the experiment with M. tuberculosis H37Rv, the “sterilization of cultures when combined with INH” value is given as “sterilized”.

As to Antimycin, the cidal activity entry in the experiment on M. tuberculosis [5] is reported as “no cidal activity”.

Consider `Cc1ccc2ccc3ccc(C)nc3c2n1` [neocuproine, reference compound], for which, in the experiment on M. tuberculosis H37Rv, the “decrease in CFUs” value is 5 log and the “growth of M. tuberculosis with neocuproine alone” value is “no impact on the growth”.

On to `N[C@@H](CS)C(=O)O` [cysteine], for which, in experiment [6], the “cystine concentration vs untreated sample” value is listed as 100 times. Also, the “levels of free thiols” value in experiment [7] is reported as “lower”. Besides, in the experiment with M. tuberculosis H37Rv, the “decrease in CFUs” value was 6 log, the “effect of cysteine on killing of M. tuberculosis by ETH” value is on record as “did not increase the killing” and the “growth of M. tuberculosis with cysteine alone” value is recorded as “not affected”.

As for `CC[C@@H](CO)NCCN[C@@H](CC)CO` [EMB, Ethambutol, reference compound], the “decrease in CFU” value with M. tuberculosis H37Rv is given as “very slow decrease”.
